# Test results from US20150140123A1, “Protein expression analyses for identifying genotoxic compounds” (Merck Patent GmbH, priority 2012, published 2015).
# Read-outs that look alike come from different tables or passages of the source.
# Experiments:
# [1] = tested on: HepG2 cells; assay: High content imaging cytotoxicity parameters: selected cell count per valid field (SCC) and CMFDA cytoplasm average intensity
# Procedure: (§1) HepG2 cells (Order No. HB-8065, Lot. 58483209, ATCC, Manassas, USA) were cultured in DMEM/F12 with L-Glutamine and 15 mM Hepes supplemented with 10% (v/v) FBS, 1% (v/v) penicillin (10 kU/ml)/streptomycin (10 mg/ml) solution, 0.1% (v/v) gentamicin (50 mg/ml), and 1 mM sodium pyruvate at 37° C. and 5% CO2 in culture flasks. Depending on the experiment, an appropriate number of cells were seeded onto plates after detaching of the cells using trypsin and cells were cultured at 37° C. and 5% CO2 for 24 h prior to treatment. All experiments were performed three times with cells of passages 4-20.
# (§2) Cells were seeded onto black Poly-D-Lysin coated 96-well-plates (BD Biocoat, Franklin Lakes, USA) (0.02×10^6 cells/well) and left 24 h for adherence and then treated with test compounds at a maximum concentration of 1 mM which is recommended by the ICH S2(R1) guideline (EMA, 2011). For each compound, nine concentrations were tested with 2-fold serial dilutions. DMSO 1% (v/v) served as vehicle control for the experiments. The treatment procedure was different for direct-genotoxic and pro-genotoxic compounds. The treatment for direct genotoxic compounds was ongoing and was repeated daily over 48 h. Pro-genotoxic compounds were incubated for 6 h together with metabolic activation system (to limit the cytotoxic effect of the S9-mixture). After this period, cells were washed with cell media followed by 18-repeated daily over 48 h. The metabolic activation system used consisted of the following components and concentrations: 8 mM MgCl2, 32.8 mM KCl, 12 mM NADPH, 124 mM phosphate buffer and 2500 pmol/ml cytochrome P450 (CYP) content in the pre-mixture corresponding to 2.4 mM MgCl2, 9.8 mM KCl, 3.6 mM NADPH, 37.2 mM phosphate buffer, and 750 pmol/ml CYP as final concentrations after dilution 1:3.33 with cell culture media.
# After treatment, cells were rinsed with PBS (Gibco Invitrogen, Karlsruhe, Germany), and then stained with 10 μM CellTracker Green 5-Chloromethylfluorescein Diacetate (CMFDA) (Invitrogen, Karlsruhe, Germany) in cell culture media for 30 min. CMFDA is per se non-fluorescent and is hydrolyzed by esterase in viable cells to a fluorescent-dye. The reaction with thiol groups leads to a cell-impermeable fluorescent-dye-adduct. The esterase activity can be used as an indicator for viability of cells (Papadopoulos et al., 1994, J Immunol Methods 177, 101-11). Afterwards, cells were washed with PBS and fixed with 3.7% Formaldehyde (Sigma-Aldrich, Taufkirchen, Germany) in PBS for 20 min. After that, cells were washed with PBS and blocked and permeabilized with 2% donkey serum (Millipore, Schwalbach, Germany) and 0.25% Triton X-100 (Sigma-Aldrich, Taufkirchen, Germany) in PBS for 30 min. Primary antibodies were diluted in Blocking/Permeabilization solution to final concentrations of 4 μg/ml anti-p-Chk1 (Ser345) goat polyclonal antibody IgG (santa cruz, Santa Cruz, USA), 4 μg/ml anti-p-ATM (Ser1981) mouse monoclonal antibody IgG1K (Millipore, Schwalbach, Germany) and added to the cells. After incubation for 16-18 h, cells were washed with 0.05% Tween 20 (Calbiochem, Darmstadt, Germany) in PBS, and the secondary antibody/16 μM Hoechst staining solution Blocking/Permeabilization solution was added. Secondary antibodies were diluted 1:400 (Alexa Fluor 555 donkey anti-goat, Alexa Fluor 647 donkey anti-mouse, Invitrogen, Karlsruhe, Germany). After an incubation of 1 h, followed by two additional washing steps with 0.05% Tween 20, cells were washed with PBS and finally PBS was added and cells were measured.
# Image acquisition was performed on the ArrayScan VTI HCS Reader (Cellomics, Pittsburgh, USA) using a 20× objective. To detect enough cells, 50 images starting at the middle of each well were gathered.
# • Channel 1: selected cell count per valid field • Channel 2: CMFDA cytoplasm average intensity • Channel 3: p-Chk1 (Ser345) nucleus average intensity • Channel 4: p-ATM (Ser1981) nucleus average intensity
# [2] = tested on: p-ATM (Ser1981); assay: High content imaging of p-ATM (Ser1981) nucleus average intensity; format: cell-based, human; conditions: HepG2 cells, 48 h; fold-change over vehicle control, threshold 1.8
# Procedure: as §1
# Cells were seeded onto black Poly-D-Lysin coated 96-well-plates (BD Biocoat, Franklin Lakes, USA) (0.02×10^6 cells/well) and left 24 h for adherence and then treated with test compounds at a maximum concentration of 1 mM which is recommended by the ICH S2(R1) guideline (EMA, 2011). […]
# After treatment, cells were rinsed with PBS (Gibco Invitrogen, Karlsruhe, Germany), and then stained with 10 μM CellTracker Green 5-Chloromethylfluorescein Diacetate (CMFDA) (Invitrogen, Karlsruhe, Germany) in cell culture media for 30 min. […] After an incubation of 1 h, followed by two additional washing steps with 0.05% Tween 20, cells were washed with PBS and finally PBS was added and cells were measured.
# Image acquisition was performed on the ArrayScan VTI HCS Reader (Cellomics, Pittsburgh, USA) using a 20× objective. […]
# [3] = tested on: p-p53 (Ser15), p21, p-H2A.X (Ser139), p-ATM (Ser1981), p-Chk1 (Ser345) in HepG2 cells
# Procedure: as §1, §2
# Two different staining procedures were performed for each compound with and without metabolic activation system:
# After treatment, cells were rinsed with PBS (Gibco Invitrogen, Karlsruhe, Germany), and then fixed with 3.7% formaldehyde (Sigma-Aldrich, Taufkirchen, Germany) in PBS for 20 min. After an additional washing step with PBS, cells were blocked and permeabilized with 2% donkey serum (Millipore, Schwalbach, Germany) and 0.25% Triton X-100 (Sigma-Aldrich, Taufkirchen, Germany) in PBS for 30 min. Primary antibodies were diluted to final concentrations of 2 μg/ml anti-p-p53 (Ser15) rabbit monoclonal antibody IgG (Invitrogen, Karlsruhe, Germany), 0.8 μg/ml anti-p21 goat polyclonal antibody IgG, (R&D systems, Minneapolis, USA); 4 μg/ml anti-p-Histone H2A.X (Ser139) mouse monoclonal antibody IgG1 (Millipore, Schwalbach, Germany) in Blocking/Permeabilization solution were added afterwards. After incubation for 16-18 h, cells were washed with 0.05% Tween 20 (Calbiochem, Darmstadt, Germany) in PBS and the secondary antibody/16 μM Hoechst staining solution in Blocking/Permeabilization solution was added. Secondary antibodies were diluted 1:400 (Alexa Fluor 488 donkey anti-rabbit, Alexa Fluor 555 donkey anti-goat, Alexa Fluor 647 donkey anti-mouse, Invitrogen, Karlsruhe, Germany). After an incubation of 1 h, followed by two additional washing steps with 0.05% Tween 20, cells were washed with PBS and finally PBS was added and cells were measured.
# After treatment, cells were rinsed with PBS (Gibco Invitrogen, Karlsruhe, Germany), and then stained with 10 μM CellTracker Green 5-Chloromethylfluorescein Diacetate (CMFDA) (Invitrogen, Karlsruhe, Germany) in cell culture media for 30 min. CMFDA is per se non-fluorescent and is hydrolyzed by esterase in viable cells to a fluorescent-dye. The reaction with thiol groups leads to a cell-impermeable fluorescent-dye-adduct. The esterase activity can be used as an indicator for viability of cells (Papadopoulos et al., 1994, J Immunol Methods 177, 101-11). Afterwards, cells were washed with PBS and fixed with 3.7% Formaldehyde (Sigma-Aldrich, Taufkirchen, Germany) in PBS for 20 min.
# [4] = HepG2 cells, 48 h, CMFDA cytoplasm average intensity, with rat liver S9 (+S9)
# [5] = HepG2 cells, 48 h, CMFDA cytoplasm average intensity, without metabolic activation (−S9)
# [6] = HepG2 cells, 48 h, selected cell count per valid field, with rat liver S9 (+S9)
# [7] = HepG2 cells, 48 h, selected cell count per valid field, without metabolic activation (−S9)
# [8] = HepG2 cells ± S9, 48 h, positive if at least one of five proteins shows fold-change above threshold (2.1 p-Chk1, p-H2A.X; 1.8 p21, p-ATM; 1.9 p-p53)
SMILES,"CMFDA +S9 highest conc. <50% cytotox. over control [1, 4]","CMFDA −S9 highest conc. <50% cytotox. over control [1, 5]","SCC +S9 highest conc. <50% cytotox. over control [1, 6]","SCC −S9 highest conc. <50% cytotox. over control [1, 7]","result for the five protein markers tested (compound set as positive or negative) [3, 8]",also measured
c1ccc2c(c1)ccc1ccccc12 [Phenanthrene],,,,,,"CMFDA +S9 highest conc. <50% cytotox. over control ([1]; human, 48 h): 1000 µM; CMFDA −S9 highest conc. <50% cytotox. over control ([1]; human, 48 h): 1000 µM; SCC +S9 highest conc. <50% cytotox. over control ([1]; human, 48 h): 1000 µM; SCC −S9 highest conc. <50% cytotox. over control ([1]; human, 48 h): 1000 µM; result for p-ATM (Ser1981) [2]: positive"
"Cc1ccc(N)cc1N [2,4-diaminotoluene]",1000 µM,1000 µM,1000 µM,1000 µM,no positive result,
C=CCc1ccc(O)c(OC)c1 [Eugenol],,,,,,"CMFDA +S9 highest conc. <50% cytotox. over control ([1]; human, 48 h): 125 µM; CMFDA −S9 highest conc. <50% cytotox. over control ([1]; human, 48 h): 1000 µM; SCC +S9 highest conc. <50% cytotox. over control ([1]; human, 48 h): 125 µM; SCC −S9 highest conc. <50% cytotox. over control ([1]; human, 48 h): 1000 µM; result for the five protein markers tested (compound set as positive or negative) [3]: positive"
CCN(N=O)C(N)=O [Ethylnitrosourea],1000 µM,1000 µM,1000 µM,1000 µM,no positive result,
CN(C)N=O [Dimethylnitrosamine],1000 µM,1000 µM,1000 µM,1000 µM,no positive result,
"Oc1ccc(Cl)cc1Cl [2,4-Dichlorophenol]",,,,,positive,CMFDA +S9 highest conc. <50% cytotox. over control ([1]; human): 1000 µM; CMFDA −S9 highest conc. <50% cytotox. over control ([1]; human): 1000 µM; SCC +S9 highest conc. <50% cytotox. over control ([1]; human): 500 µM; SCC −S9 highest conc. <50% cytotox. over control ([1]; human): 250 µM
[Cl][Cd][Cl] [Cadmium chloride],62.5 µM,62.5 µM,125 µM,31.25 µM,no positive result,
